Patent US20230123889A1, “METHOD FOR DEGRADING BENZO(A)PYRENE WITH A HALOPHILIC BACTERIUM STRAIN OF STAPHYLOCOCCUS HAEMOLITICUS” (KING FAHD UNIVERSITY OF PETROLEUM AND MINERALS, priority 2021, published 2023)
Marks after values point to notes of the source that are not given here.

What was measured:
Format in all cases: cell-based
[1] = test system: Staphylococcus haemoliticus 10SBZ1A strain; experiment: Bacterial growth assessment (doubling time, CFU/ml) in the presence of BZP and various hydrocarbon substrates as carbon source; settings: for strain dt in the presence of substrate (FIG. 3): substrate as carbon source; for Doubling time (dt, h): strain growing on BaP
Experimental: Bacterial growth assessment in the presence of BZP and various hydrocarbon molecules: effect of pH and salinity. To initiate these experiments, bacteria were pre-cultured in an LB rich medium, and around 5×10^5 colony forming units (CFU) of these bacteria were added to 50 ml BH medium containing 100 μmol BZP, unless otherwise stated. Non-polar substrates pyrene, phenanthrene, naphthalene and anthracene were dissolved in dimethyl sulfoxide (DMSO) [0.1 g/ml], while the water-soluble substrates SALC and CATC were dissolved directly in BH medium. The aliphatic compounds were directly added to the medium. […] Growth was monitored as a measure of CFU/ml.
Bacterial doubling time (dt) was calculated by fitting growth curves data points into […] equation, where Q is the bacterial CFU ml^−1 at time t, Qo is the initial bacterial count in the culture, and k is the growth rate. The growth rate (k) was then used to compute dt values according to the equation: dt=ln(2)/k (in days). Values were calculated with Microsoft Excel software (Version). All experiments were carried out in duplicate.

[2] = test system: Staphylococcus haemoliticus 10SBZ1A strain; experiment: as above
[3] = test system: Staphylococcus haemoliticus 10SBZ1A strain; experiment: Quantification of BZP and substrate utilization in bacterial culture (GC-MS); settings: control without bacteria
Experimental: Quantification of BZP and substrate utilization. The remaining BZP was quantified in a bacterial culture of 100 ml containing 20 μmol BZP for 18 days, according to the protocol reported by and incorporated by reference to Budiyanto, F, et al. (2017). Characterization of halophilic bacteria capable of efficiently biodegrading the high molecular weight polycyclic aromatic hydrocarbon pyrene. Environmental Engineering Science. June 2018.616-626.
A sample corresponding to one culture flask of 100 ml, was collected every 5 days and subjected to extraction as follows. The samples were sonicated for 30 min and then extracted twice with ethyl acetate (50 ml). The combined organic layers were dehydrated with calcium chloride and then dried under vacuum. Samples were re-dissolved in 500 μl of chloroform prior to analysis by gas chromatography-mass spectrometry (GC-MS). […] Values of quantified BZP were fitted in the exponential decay equation, Qt=Qoe^−kt to obtain the biodegradation rate constant (k); see Lu, J, C Guo, et al. (2014). […]
The mixture was then diluted with 1.0 ml of chloroform prior to its analysis by GC-MS. […] Values of quantified BZP were fitted in the exponential decay equation, Qt=Qoe^−kt to obtain the biodegradation rate constant (k); see Lu et al., International Biodeterioration & Biodegradation 87: 75-80.

OCC(O)CO [glycerol]
strain dt in the presence of substrate (FIG. 3) [1]: around 11 hours

c1ccc2cc3ccccc3cc2c1 [anthracene]
strain dt in the presence of substrate (FIG. 3) [1]: 30 to 33 h

c1ccc2c(c1)cc1ccc3cccc4ccc2c1c34 [BZP, benzo(a)pyrene]
Doubling time (dt, h) ([2]; Temperature 37° C., strain growing on BaP): 21+1 h | range of dt ([2]; temperatures 35, 37, 40° C.): 21 to 29 h | growth ([1]; 0% NaCl): No growth | doubling time ([1]; 4-200 μmol of BZP as sole source of carbon): 2 to 10 h | growth ([1]; 20% NaCl): No growth | maximum count ([1]; BZP 20 μmol.1^−1): > 10^9 CFU ml^−1 | time at which the maximum growth was achieved ([1]; BZP 400 μmol.1^−1): 15 days | dt values ([1]; BZP 1 to 100 μmol.1^1): 15 to 20 h | maximum count ([1]; BZP 5 to 20 μmol.1^−1): 10^7-10^8 CFU/ml | time to reach maximum growth ([1]; BZP 5 to 20 μmol.1^−1): 6 to 8 days | dt values relative to those at 1 to 100 μmol.1^1 ([1]; BZP 200 and 400 μmol.1^−1): almost doubled | Doubling time (dt, h) ([1]; Salinity 5% NaCl): 44 ± 7 h | Doubling time (dt, h) ([1]; Salinity 5% NaCl, listed as benzo(a)pyrene): 46.8 ± 7.4 h | Doubling time (dt, h) ([1]; Salinity 10% NaCl): 21 ± 1 h | Doubling time (dt, h) ([1]; Salinity 10% NaCl, listed as benzo(a)pyrene): 21.5 ± 1.0 h | Doubling time (dt, h) ([1]; Salinity 15% NaCl): 156 ± 73 h | Doubling time (dt, h) ([1]; Salinity 15% NaCl, listed as benzo(a)pyrene): 156 ± 74 h | Doubling time (dt, h) ([1]; Temperature 35° C.): 28.5 ± 2.4^b h | Doubling time (dt, h) ([1]; Temperature 37° C.): 21.5 ± 1.0^b h | Doubling time (dt, h) ([1]; Temperature 40° C.): 24.5 ± 1.0 h | growth at other pH values ([1]; pH 5, 6, 8 and 9): slow | dt values ([1]; pH 7): 21.49±0.98 | Doubling time (dt, h) ([1]; pH 7): 21.5 ± 1.0 h | strain dt in the presence of substrate (FIG. 3) [1]: around 42 h | abiotic degradation [3]: Around 20%

c1cc2ccc3cccc4ccc(c1)c2c34 [pyrene]
strain dt in the presence of substrate (FIG. 3) [1]: similar
